{"source": "patent US11752122B2", "about": "(OKLAHOMA MEDICAL RESEARCH FOUNDATION, priority 2018, dated 2023)", "key": {"[1]": {"system": "aortic valves of LDLR mice on HFD", "assay": "Histology and immunohistochemical staining of aortic valves of LDLR mice on HFD", "assay_type": "in vivo", "details": "LDLR mice at 6 months on HFD, NAC 3-5 and 5-6 months combined, vs untreated", "method": "Histology and immunofluorescent staining of aortic valve sections. Mice receiving HFD were euthanized at 6 months and perfused with PBS. Hearts with their attached ascending aorta were excised, fixed in 4% paraformaldehyde for 24 hours and processed for routine paraffin embedding. Tissues were cut in 5 μm thick sections in the middle of the heart to get maximum valve thickness (FIG. 12) and stained with picrosirius red for collagen. For immunofluorescent staining, tissue sections were deparaffinized and rehydrated by immersing in xylene and a series of graded alcohols, followed by heat (97° C.)-induced epitope retrieval using Tris-EDTA buffer, pH 9.0 for 30 minutes. Slides were incubated for 1 hour at RT with blocking buffer (1% BSA+0.3M glycine in Tris-NaCl-Tween buffer) and then incubated overnight at 4° C. with primary antibodies at final concentrations of 0.5 μg/ml. After washing in wash buffer (Tris-NaCl-Tween) and incubation with a fluorescent secondary antibody at RT for 2 hours, slides were washed with wash buffer three times and mounted with a fluorescence mounting medium containing diamidino-2-phenylindole (DAPI) to stain nuclei.\nImages were photographed using Ziess 710 Confocal or Nikon eclipse 80i fluorescence microscope. Positively-stained areas and total valve areas in immunohistochemical and histological images were quantified as shown in FIG. 13. Primary antibodies used were anti-phospho-Smad2 (Ser465/467) (AB3849, Millipore), anti-vimentin (ab92547, Abcam), anti-α-SMA (904601, Biolegend), Isolectin B4 (121411, Life Technologies), anti-CD41 (14-0411, eBioscience), anti-CD62P (148301, Biolegend), and anti-collagen (SAB1402151, Sigma). Species-matched secondary antibodies conjugated to Alexa 488, Alexa 594, or Alexa 647 were used. Histology images were analyzed and quantified using ImageJ (NIH)."}, "[2]": {"system": "ascending aortic constriction (AAC) model", "assay": "Cardiac fibrosis in ascending aortic constriction (AAC) model", "assay_type": "in vivo, mice", "details": "high shear pressure overload AAC model, NAC treatment (data not shown)", "from_the_text": "Ascending Aortic Constriction. Ascending aortic constriction was induced by controlled constriction of the ascending aorta as described previously 26. Briefly, mice were anesthetized with 1.5% isoflurane and the ascending aorta was surgically exposed by a mid-thorax incision. A 2 7-0 suture was placed around both the aorta and an adjacent 27-gauge (0.41 mm OD) needle proximal to the origin of the innominate artery. […] Mice were sacrificed and tissues collected 1 month after the surgery."}, "mouse model": {"system": "mouse model", "details": "large doses, mouse model; cited from earlier work"}, "[3]": {"details": "cited from earlier work"}}, "note": "Where two headings read alike, the source gives them in different places."}
{"smiles": "CC(=O)N[C@@H](CS)C(=O)O", "note": "[NAC, N-acetylcysteine]", "values": [{"measurement": "aortic valve area", "setting": "[1]", "result": "reduced"}, {"measurement": "fibrosis in aortic valves", "setting": "[1]", "result": "reduced"}, {"measurement": "p-Smad2 staining in aortic valves", "setting": "[1]", "result": "reduced"}, {"measurement": "cardiac fibrosis", "setting": "[2]", "result": "inhibits cardiac fibrosis"}, {"measurement": "damage to the heart and lungs", "setting": "mouse model", "result": "could potentially cause damage to the heart and lungs"}, {"measurement": "liver damage", "setting": "[3]; taken 4 hours after alcohol, dose-dependent", "result": "made liver damage worse"}, {"measurement": "liver damage", "setting": "[3]; taken before alcohol", "result": "prevented liver damage"}]}
